Experimental data as given in patent US20180244611A1, “Modulators of the Cystic Fibrosis Transmembrane Conductance Regulator Protein and Methods of Use” (AbbVie S.à.r.l., priority 2017, published 2018).

Columns and labels:
F508delCFTR [1] = biological target: T1, F508delCFTR (Homo sapiens, UniProt P13569, DEL508-508); assay: Cell Surface Expression-Horse Radish Peroxidase (CSE-HRP) assay, test compound with co-corrector; format: cell-based; conditions: for EC50: CSE-HRP assay, test compound with 2 μM co-corrector; for Maximum % activity (with co-corrector): maximum at any tested concentration, normalized to on-plate positive control, with 2 μM co-corrector;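 for Maximum % activity (with co-corrector): percent of 2 µM positive control corrector over DMSO; co-corrector is that same compound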
T1 construct: expressed in transfected cells; host or cells: CFBE41o- human lung-derived epithelial cells (CFBE41o-F508delCFTR-HRP), doxycycline-inducible
T1 sequence (P13569 with tags, fused parts or gaps DEL508-508): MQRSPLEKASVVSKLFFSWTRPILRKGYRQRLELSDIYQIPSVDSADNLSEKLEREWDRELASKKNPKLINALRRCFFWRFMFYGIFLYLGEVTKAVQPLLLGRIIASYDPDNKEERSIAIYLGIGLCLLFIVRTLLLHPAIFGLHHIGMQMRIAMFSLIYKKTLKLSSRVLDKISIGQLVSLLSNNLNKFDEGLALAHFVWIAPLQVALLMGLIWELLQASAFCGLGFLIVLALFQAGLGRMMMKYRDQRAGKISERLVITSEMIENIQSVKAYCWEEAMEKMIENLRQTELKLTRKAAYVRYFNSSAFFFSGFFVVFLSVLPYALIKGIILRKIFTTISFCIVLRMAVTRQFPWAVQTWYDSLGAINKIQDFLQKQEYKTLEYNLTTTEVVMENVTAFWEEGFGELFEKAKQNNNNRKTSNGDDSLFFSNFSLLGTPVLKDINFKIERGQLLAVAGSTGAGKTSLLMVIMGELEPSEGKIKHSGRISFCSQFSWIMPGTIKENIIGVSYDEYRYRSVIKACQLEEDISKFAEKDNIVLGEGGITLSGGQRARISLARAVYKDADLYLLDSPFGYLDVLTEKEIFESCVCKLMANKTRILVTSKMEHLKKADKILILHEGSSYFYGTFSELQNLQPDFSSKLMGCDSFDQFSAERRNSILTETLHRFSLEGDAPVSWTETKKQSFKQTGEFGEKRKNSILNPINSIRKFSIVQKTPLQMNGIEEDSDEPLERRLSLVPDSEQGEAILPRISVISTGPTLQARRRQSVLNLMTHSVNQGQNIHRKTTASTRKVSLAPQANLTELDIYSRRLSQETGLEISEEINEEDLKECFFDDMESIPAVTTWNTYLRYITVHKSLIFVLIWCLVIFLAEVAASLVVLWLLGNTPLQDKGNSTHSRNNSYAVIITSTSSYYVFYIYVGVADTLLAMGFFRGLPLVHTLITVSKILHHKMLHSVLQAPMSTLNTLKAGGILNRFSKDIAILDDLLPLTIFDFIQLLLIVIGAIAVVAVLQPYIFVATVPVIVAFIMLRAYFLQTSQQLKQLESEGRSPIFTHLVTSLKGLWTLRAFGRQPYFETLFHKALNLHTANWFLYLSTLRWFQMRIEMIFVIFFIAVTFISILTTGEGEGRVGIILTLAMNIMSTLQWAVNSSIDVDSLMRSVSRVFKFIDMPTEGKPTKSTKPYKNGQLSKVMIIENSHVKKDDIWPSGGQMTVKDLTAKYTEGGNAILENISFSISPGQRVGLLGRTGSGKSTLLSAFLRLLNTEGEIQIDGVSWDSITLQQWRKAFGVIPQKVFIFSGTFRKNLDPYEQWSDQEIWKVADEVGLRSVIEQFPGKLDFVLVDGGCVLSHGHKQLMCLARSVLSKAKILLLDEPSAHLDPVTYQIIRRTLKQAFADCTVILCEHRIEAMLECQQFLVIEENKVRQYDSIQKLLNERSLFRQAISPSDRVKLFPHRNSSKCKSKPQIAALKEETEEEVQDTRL
How it was run: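 Surface-expression read-out: luminol luminescence from an HRP tag in the fourth exofacial loop of F508delCFTR, in doxycycline-induced (0.5 μg/mL, 72 h) CFBE41o- cells. Compound plus 2 μM co-corrector added for 18-24 h at 33° C., 8-point 3-fold series up to 20 μM. EC50 from a sigmoidal fit with variable Hill slope, normalised to positive control, triplicate plates.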

F508delCFTR [2] = biological target: T1, F508delCFTR; assay: Cell Surface Expression-Horse Radish Peroxidase (CSE-HRP) assay, test compound without co-corrector; format: cell-based; conditions: for EC50: CSE-HRP assay, test compound without co-corrector; for Emax: maximum at any tested concentration, normalized to on-plate positive control, without co-corrector;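 for Emax: percent of on-plate 2 µM positive control corrector response over DMSO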
How it was run: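 Compound without co-corrector was tested at eight 3-fold concentrations, top 20 μM, for 18-24 h at 33° C on doxycycline-induced (0.5 μg/mL, 72 h) CFBE41o- F508delCFTR-HRP cells. After DPBS washes, luminol luminescence gave % activity relative to on-plate positive control minus DMSO; EC50 came from triplicate-plate sigmoidal fitting.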

| EC50 (F508delCFTR [1]) [µM] | Maximum % activity (with co-corrector) (F508delCFTR [1]) | EC50 (F508delCFTR [2]) [µM] | Emax (F508delCFTR [2]) [%] | Structure (SMILES) |
| --- | --- | --- | --- | --- |
| 3 to 10 | ++ (≥150 and <350) | 3 to 10 | < 50 | CCC1(C(=O)NS(=O)(=O)C2(C)CC2)CCc2c(Cl)cccc21 (stereo not shown) [III-128] |
| 3 to 10 | ++ (≥150 and <350) | ≥ 10 | < 50 | CCC1(C(=O)NS(=O)(=O)c2ccc(-c3ccccc3)cc2)CCc2c(Cl)cccc21 (stereo not shown) [III-129] |
| ≥ 10 | + (<150) | ≥ 10 | < 50 | CCC1(C(=O)NS(=O)(=O)c2ccc(CN(C)C)cc2)CCc2c(Cl)cccc21 (stereo not shown) [III-130] |
| ≥ 10 | + (<150) | ≥ 10 | < 50 | CCC1(C(=O)NS(=O)(=O)c2c(C)nn(C)c2Cl)CCc2c(Cl)cccc21 (stereo not shown) [III-131] |
| 3 to 10 | ++ (≥150 and <350) | ≥ 10 | < 50 | CCC1(C(=O)NS(=O)(=O)c2cccnc2Cl)CCc2c(Cl)cccc21 (stereo not shown) [III-132] |
| 3 to 10 | ++ (≥150 and <350) | ≥ 10 | < 50 | CCC1(C(=O)NS(=O)(=O)c2ccc3ncccc3c2)CCc2c(Cl)cccc21 (stereo not shown) [III-133] |
| ≥ 10 | + (<150) | ≥ 10 | < 50 | CCC1(C(=O)NS(=O)(=O)c2c(Cl)nc3sccn23)CCc2c(Cl)cccc21 (stereo not shown) [III-134] |
| ≥ 10 | + (<150) | ≥ 10 | < 50 | CCC1(C(=O)NS(=O)(=O)c2ncccc2C(=O)N(C)C)CCc2c(Cl)cccc21 (stereo not shown) [III-135] |
| ≥ 10 | + (<150) | ≥ 10 | < 50 | CCC1(C(=O)NS(=O)(=O)C2CCCCC2)CCc2c(Cl)cccc21 (stereo not shown) [III-136] |
| ≥ 10 | + (<150) | ≥ 10 | < 50 | CCC1(C(=O)NS(=O)(=O)c2cnccc2N2CCN(C(C)C)CC2)CCc2c(Cl)cccc21 (stereo not shown) [III-137] |
| 3 to 10 | ++ (≥150 and <350) | 3 to 10 | < 50 | CCC1(C(=O)NS(=O)(=O)c2ccccc2OCCN2CCCCC2)CCc2c(Cl)cccc21 (stereo not shown) [III-138] |
| < 3 | ++ (≥150 and <350) | < 3 | < 50 | CCC1(C(=O)NS(=O)(=O)c2ccc(C)cc2)CCc2c(Cl)cccc21 (stereo not shown) [III-139] |
| ≥ 10 | + (<150) | ≥ 10 | < 50 | CCC1(C(=O)NS(=O)(=O)Cc2ccccc2)CCc2c(Cl)cccc21 (stereo not shown) [III-140] |
| ≥ 10 | + (<150) | ≥ 10 | < 50 | CCC1(C(=O)NS(=O)(=O)c2cccc3c2C(=O)N(C)C3=O)CCc2c(Cl)cccc21 (stereo not shown) [III-141] |
| 3 to 10 | ++ (≥150 and <350) | 3 to 10 | < 50 | CCC1(C(=O)NS(=O)(=O)c2ccc(OC)cc2)CCc2c(Cl)cccc21 (stereo not shown) [III-142] |
| ≥ 10 | + (<150) | ≥ 10 | < 50 | CCC1(C(=O)NS(=O)(=O)c2ccc(Oc3ccccc3)cc2)CCc2c(Cl)cccc21 (stereo not shown) [III-143] |
| 3 to 10 | ++ (≥150 and <350) | ≥ 10 | < 50 | CCC1(C(=O)NS(=O)(=O)c2cccc(C#N)c2)CCc2c(Cl)cccc21 (stereo not shown) [III-144] |

| EC50 (F508delCFTR [1]) [µM] | Maximum % activity (with co-corrector) (F508delCFTR [1]) | EC50 (F508delCFTR [2]) [µM] | Emax (F508delCFTR [2]) [%] | Structure (SMILES) |
| --- | --- | --- | --- | --- |
| 3 to 10 | ++ (≥150 and <350) | 3 to 10 | < 50 | CCC1(C(=O)NS(=O)(=O)c2cc[nH]n2)CCc2c(Cl)cccc21 (stereo not shown) [III-145] |
| 3 to 10 | ++ (≥150 and <350) | 3 to 10 | < 50 | O=C(NS(=O)(=O)c1cccc2ccccc12)C1(Cc2ccccn2)CCc2c(Cl)cccc21 (stereo not shown) [III-147] |
| < 3 | +++ (≥350) | < 3 | ≥ 150 | COc1ccc(-c2cccc(OC(F)(F)F)c2)c2c1CCCC2C(=O)NS(=O)(=O)c1cccc2ccccc12 (stereo not shown) [III-148] |
| < 3 | + (<150) | ≥ 10 | < 50 | CCC1(C(=O)NS(=O)(=O)c2cccc(Cl)c2C(=O)OC)CCc2c(Cl)cccc21 (stereo not shown) [III-149] |
| 3 to 10 | ++ (≥150 and <350) | 3 to 10 | < 50 | O=C(NS(=O)(=O)c1cccc2ccccc12)C1CCc2c(Br)ccc(O)c21 (stereo not shown) [III-152] |
| ≥ 10 | + (<150) | ≥ 10 | < 50 | COc1ccc(N2CCOCC2)c2c1CCCC2C(=O)NS(=O)(=O)c1cccc2ccccc12 (stereo not shown) [III-153] |
| < 3 | +++ (≥350) | < 3 | ≥ 150 | COc1ccc(-c2ccc(C(F)(F)F)cc2)c2c1CCCC2C(=O)NS(=O)(=O)c1cccc2ccccc12 (stereo not shown) [III-154] |
| < 3 | ++ (≥150 and <350) | 3 to 10 | 50 to 150 | CCC1(C(=O)NS(=O)(=O)c2cccc(Cl)c2C)CCc2c(Cl)cccc21 (stereo not shown) [III-156] |
| 3 to 10 | ++ (≥150 and <350) | 3 to 10 | 50 to 150 | COc1ccc(Br)c2c1C(C(=O)NS(=O)(=O)c1cccnc1OC)CC2 (stereo not shown) [III-158] |
| 3 to 10 | +++ (≥350) | 3 to 10 | ≥ 150 | COc1ccc(Br)c2c1C(C(=O)NS(=O)(=O)c1cccnc1N)CC2 (stereo not shown) [III-159] |
| 3 to 10 | +++ (≥350) | 3 to 10 | 50 to 150 | COc1ccc(Br)c2c1C(C(=O)NS(=O)(=O)c1cccc(N)n1)CC2 (stereo not shown) [III-160] |
| 3 to 10 | ++ (≥150 and <350) | 3 to 10 | < 50 | CCOc1ccc(S(=O)(=O)NC(=O)C2CCc3c(Br)ccc(OC)c32)c2ccccc12 (stereo not shown) [III-161] |
| 3 to 10 | +++ (≥350) | 3 to 10 | 50 to 150 | COc1ccc(Br)c2c1C(C(=O)NS(=O)(=O)c1ccc(OC)c3ccccc13)CC2 (stereo not shown) [III-162] |
| 3 to 10 | ++ (≥150 and <350) | ≥ 10 | < 50 | COc1ccc(Br)c2c1C(C(=O)NS(=O)(=O)c1cccn3cnnc13)CC2 (stereo not shown) [III-163] |
| < 3 | +++ (≥350) | < 3 | 50 to 150 | COc1ccc(-c2cncnc2)c2c1C(C(=O)NS(=O)(=O)c1cccc3ccccc13)CCC2 (stereo not shown) [III-164] |
| < 3 | ++ (≥150 and <350) | 3 to 10 | 50 to 150 | COc1ccc(-c2ccc(C3CC3)nc2)c2c1C(C(=O)NS(=O)(=O)c1cccc3ccccc13)CCC2 (stereo not shown) [III-165] |
| < 3 | ++ (≥150 and <350) | < 3 | 50 to 150 | COc1ccc(-c2ccncc2)c2c1C(C(=O)NS(=O)(=O)c1cccc3ccccc13)CCC2 (stereo not shown) [III-166] |
